Laboratory results published in publication PMC11071649, “Synthesis and Selective Anticancer Activity Evaluation of 2-phenylacrylonitrile Derivatives as Tubulin Inhibitors” (Current Medicinal Chemistry, 2024).
Read-outs that look alike come from different tables or passages of the source.

How the values were obtained:
Assay type in all cases: cell-based, human
A549 lung cancer cell = experiment: MTT anti-proliferative assay, A549; conditions: MTT, 48 h
How it was run: (§1)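 Human cell lines were obtained from ATCC and cultured in DMEM with FBS. Cells were plated in 96-well plates, exposed to compounds and assessed by MTT read-out. Activity was expressed as inhibition of net cell growth.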

AGS gastric cancer cell = experiment: MTT anti-proliferative assay, AGS; conditions: for IC50: MTT, 48 h
How it was run: as §1

[1] = test system: BEL-7402 liver cancer cell; experiment: MTT anti-proliferative assay, BEL-7402; conditions: MTT, 48 h
How it was run: as §1

[2] = test system: HCT116 colectal cancer cell; experiment: MTT anti-proliferative assay, HCT116; conditions: for IC50: MTT, 48 h, read-out: IC50 HCT-116
How it was run: as §1

[3] = test system: HeLa cervical cancer cell; experiment: MTT anti-proliferative assay, HeLa; conditions: MTT, 48 h
How it was run: as §1

HepG2 hepatoma cell = experiment: MTT anti-proliferative assay, HepG2; conditions: MTT, 48 h; read-out: IC50 HepG-2
How it was run: as §1

L-02 normal liver cell = experiment: MTT assay, L-02 normal cells; conditions: 48 h
How it was run: as §1

[4] = test system: MGC-803 late stage differentiation gastric cancer cell; experiment: MTT anti-proliferative assay, MGC-803; conditions: MTT, 48 h
How it was run: as §1

MCF-7 breast cancer cell = experiment: MTT anti-proliferative assay, MCF-7; conditions: MTT, 48 h
How it was run: as §1

[5] = test system: MCF-10A normal breast cell; experiment: MTT assay, MCF-10A normal cells; conditions: 48 h
How it was run: as §1

[6] = test system: Raji B lymphoblastoid cell; experiment: MTT anti-proliferative assay, Raji
How it was run: as §1

[7] = test system: SGC-7901 early differentiation gastric cancer cell; experiment: MTT anti-proliferative assay, SGC-7901; conditions: MTT, 48 h
How it was run: as §1

[8] = test system: diffuse large B-cell lymphoma SU-DHL-10 cell; experiment: MTT anti-proliferative assay, SU-DHL-10
How it was run: as §1

[9] = MTT, 48 h, read-out: IC50 SU-DHL-10

Compound | IC50 (A549 lung cancer cell) [µM] | IC50 (AGS gastric cancer cell) [µM] | IC50 [1] [µM] | IC50 [2] [µM] | IC50 [3] [µM] | IC50 (HepG2 hepatoma cell) [µM] | IC50 (L-02 normal liver cell) [µM] | IC50 [4] [µM] | IC50 (MCF-7 breast cancer cell) [µM] | IC50 [5] [µM] | SI (selectivity index), IC50 (L-02)/IC50 (Raji) [6] | IC50 ([6]; MTT, 48 h, read-out: IC50 Raji) [µM] | IC50 [7] [µM] | IC50 [8, 9] [µM] | SI (selectivity index), IC50 (L-02)/IC50 (HCT-116) [2] | SI (selectivity index), IC50 (L-02)/IC50 (AGS) (AGS gastric cancer cell) | IC50 ([6]; read-out: IC50 Raji cells) [µM] | SI (selectivity index), IC50 (L-02)/IC50 (SU-DHL-10) [8] | IC50 ([8]; read-out: IC50 SU-DHL-10 cells) [µM]
CC(C)c1ccc(/C=C(\C#N)c2ccc(C(F)(F)F)cc2)cc1 [Compound 1f2q] | > 100 | > 100 | > 100 | > 100 | > 100 | > 100 | > 100 | > 100 | > 100 | > 100 | > 2.8 | 34.9 ± 4.5 | > 100 | 38.4 ± 3.6 |  |  |  |  | 
Cc1cc(C)c(/C=C(\C#N)c2ccc(C(F)(F)F)cc2)c(C)c1 [Compound 1f2r] | > 100 | > 100 | > 100 | > 100 | > 100 | > 100 | > 100 | > 100 | > 100 | > 100 |  | > 100 | > 100 | > 100 |  |  |  |  | 
COc1ccc(/C=C(\C#N)c2ccc(C(F)(F)F)cc2)cc1 [Compound 1f2s] | > 100 | > 100 | > 100 | 47.8 ± 0.7 | > 100 | > 100 | > 100 | > 100 | > 100 | > 100 |  | > 100 | > 100 | > 100 | > 2.0 |  |  |  | 
COc1cccc(/C=C(\C#N)c2ccc(C(F)(F)F)cc2)c1 [Compound 1f2t] | > 100 | 77.5 ± 3.9 | > 100 | 33.2 ± 0.2 | > 100 | > 100 | > 100 | > 100 | > 100 | > 100 |  | > 100 | > 100 | > 100 | > 3.0 | > 1.2 |  |  | 
COc1cc(/C=C(\C#N)c2ccc(C(F)(F)F)cc2)cc(OC)c1OC [Compound 1f2u] | > 100 | > 100 | > 100 | > 100 | > 100 | > 100 | > 100 | > 100 | > 100 | 92.5 ± 10.2 |  | > 100 | > 100 | > 100 |  |  |  |  | 
N#C/C(=C\c1ccc(Oc2ccccc2)cc1)c1ccc(C(F)(F)F)cc1 [Compound 1f2v] | > 100 | > 100 | > 100 | > 100 | > 100 | > 100 | > 100 | > 100 | > 100 | > 100 |  | > 100 | > 100 | > 100 |  |  |  |  | 
N#C/C(=C\c1ccc(/C=C(\C#N)c2ccc(C(F)(F)F)cc2)cc1)c1ccc(C(F)(F)F)cc1 [Compound 1f2w] | > 100 | > 100 | > 100 | > 100 | > 100 | > 100 | > 100 | > 100 | > 100 | > 100 | > 2083 |  | > 100 |  |  |  | 0.048 | > 4545 | 0.022
N#C/C(=C\c1ccco1)c1ccc(C(F)(F)F)cc1 [Compound 1f3a] | > 100 | > 100 | > 100 | > 100 | > 100 | > 100 | > 100 | > 100 | > 100 | > 100 |  | > 100 | > 100 | > 100 |  |  |  |  | 
